The assay concerns compound 48/80-induced lethality in rats. In words: Protection of rats from compound 48/80-induced lethality. The class given is in vivo, rat (male, inbred Wistar strain). Conditions: male Wistar rats, s.c. or oral, one hour before 0.5 mg/kg i.v. compound 48/80, ED50 = dose protecting 50% of animals, survival after 4 hours; for ED50: Rattus norvegicus, 4 h, read-out: compound 48/80 lethality test in rats-ED50. The source says:
Protection of rats from compound 48/80-induced lethality.
Compound 48/80, a mixture of oligomers obtained by condensation of 4-methoxy-N-methylbenzeneethanamine and formaldehyde has been described as a potent histamine releasing agent (Int. Arch. Allergy, 13, 336 (1958)). The protection from compound 48/80-induced lethal circulatory collapse appears to be a simple way of evaluating quantitatively the antihistaminic activity of test compounds. Male rats of an inbred Wistar strain, weighing 240-260 g were used in the experiment. After overnight starvation the rats were transferred to conditioned laboratories (temp.=21±1° C., relative humidity=65±5%). The rats were treated subcutaneously or orally with a test compound or with the solvent (NaCl solution, 0.9%). One hour after treatment there was injected intravenously compound 48/80, freshly dissolved in water, at a dose of 0.5 mg/kg (0.2 ml/100 g of body weight). In control experiments, wherein 250 solvent-treated animals were injected with the standard dose of compound 48/80, not more than 2.8% of the animals survived after 4 hours. Survival after 4 hours is therefore considered to be a safe criterion of a protective effect of drug administration.
Said ED50 -values are the values in mg/kg body weight at which the tested compounds protect 50% of the tested animals against compound 48/80-induced lethality.

For the compound `c1ccc(CCN2CCC(Nc3nc4cncnc4n3Cc3cccs3)CC2)nc1` [Compound 143, N-[1-[2-(2-pyridinyl)ethyl]-4-piperidinyl]-9-(2-thienylmethyl)-9H-purin-8-amine], the ED50 amounted to 0.02 mg/kg.
Regarding `Cc1nc2ccccn2c(=O)c1CCN1CCC(Nc2nc3cncnc3n2Cc2cccs2)CC1` [Compound 89], the ED50 amounted to 0.08 mg/kg.
Still for that read-out and setting: under `Fc1ccc(Cn2c(NC3CCN(CCNc4nc5cnccc5[nH]4)CC3)nc3cncnc32)cc1` [Compound 183, 9-[(4-fluorophenyl)methyl]-N-[1-[2-[(1H-imidazo[4,5-c]pyridin-2-yl)amino]ethyl]-4-piperidinyl]-9H-purin-8-amine (E)-2-butenedioate(1:3) monohydrate] stands 0.04 mg/kg.
Still for that read-out and setting: under `O=c1oc2ccccc2cc1CCN1CCC(Nc2nc3cncnc3n2Cc2ccccn2)CC1` [Compound 106] stands 0.08 mg/kg; under `COc1ccc(CCN2CCC(Nc3nc4ncncc4n3Cc3ccc(F)cc3)CC2)cc1` [Compound 78], 0.04 mg/kg; under `COc1ccc(CCN2CCC(Oc3nc4cncnc4n3Cc3ccc(F)cc3)CC2)cc1` [Compound 64], 0.08 mg/kg.
Take “9-(2-furanylmethyl)-N-[1-[4-[(2-thiazolyl)amino]pentyl]-4-piperidinyl]-9H-purin-8-amine [Compound 173]”: the “compound 48/80 lethality test in rats-ED50” value is recorded as 0.08 mg/kg body weight.
As for `Fc1ccc(Cn2c(CC3CCN(CCNc4ncccn4)CC3)nc3cncnc32)cc1` [Compound 171], the ED50 was 0.08 mg/kg.
The same measure, in the same setting: under `COc1ccc(CCN2CCC(Nc3nc4cncnc4n3Cc3ccccc3)CC2)cc1` [Compound 83] stands 0.08 mg/kg.
On the same count and under the same terms, under `O=c1oc2ccccc2cc1CCN1CCC(Nc2nc3cncnc3n2Cc2ccco2)CC1` [Compound 104] stands 0.04 mg/kg.
On the same count and under the same terms, under `Fc1ccc(Cn2c(NC3CCN(CCc4ccccn4)CC3)nc3cncnc32)cc1` [Compound 141, 9-[(4-fluorophenyl)methyl]-N-[1-[2-(2-pyridinyl)ethyl]-4-piperidinyl]-9H-purin-8-amine] stands 0.01 mg/kg; under `COc1ccc(CCN2CCC(Nc3nc4cncnc4n3Cc3ccccn3)CC2)cc1` [Compound 74, N-[1-[2-(4-methoxyphenyl)ethyl]-4-piperidinyl]-9-(2-pyridinylmethyl)-9H-purin-8-amine], 0.01 mg/kg.
As for `c1cnc(NCCN2CCC(Nc3nc4cncnc4n3Cc3ccco3)CC2)nc1` [Compound 165], the ED50 was 0.02 mg/kg.
Take `Cl.Cl.O.O.c1coc(Cn2c(NC3CCN(CC4COc5ccccc5O4)CC3)nc3cncnc32)c1` (stereo not shown) [Compound 60, N-[1-[(2,3-dihydro-1,4-benzodioxin-2-yl)methyl]-4-piperidinyl]-9-(2-furanyl-methyl)-9H-purin-8-amine dihydrochloride dihydrate]: the ED50 was 0.08 mg/kg.
Still for that read-out and setting: in the case of `Cc1nc2ccccn2c(=O)c1CCN1CCC(Nc2nc3cncnc3n2Cc2ccco2)CC1` [Compound 88] it was 0.02 mg/kg; in that of `Cc1ccc(Cn2c(NC3CCN(CCc4ccccn4)CC3)nc3cncnc32)o1` [Compound 145, 9-[(5-methyl-2-furanyl)methyl]-N-[1-[2-(2-pyridinyl)ethyl]-4a-piperidinyl]-9H-purin-8-amine], 0.01 mg/kg.
On the same count and under the same terms, under `COc1ccc(CCN2CCC(Nc3nc4cncnc4n3Cc3cccs3)CC2)cc1` [Compound 77] stands 0.02 mg/kg; under `c1cnc(NCCN2CCC(Nc3nc4cncnc4n3Cc3cccs3)CC2)nc1` [Compound 167], 0.08 mg/kg.
On the same count and under the same terms, in the case of `COc1ccc(CCN2CCC(Nc3nc4cncnc4n3Cc3ccc(F)cc3)CC2)cc1` [Compound 75] it was 0.08 mg/kg; in that of `Cc1ccc(Cn2c(NC3CCN(CC4COc5ccccc5O4)CC3)nc3cncnc32)o1` (stereo not shown) [Compound 61, N-[1-[(2,3-dihydro-1,4-benzodioxin-2-yl)methyl]-4-piperidinyl]-9-[(5-methyl-2-furanyl)methyl]-9H-purin-8-amine], 0.01 mg/kg; in that of `Cc1ccc(Cn2c(NC3CCN(CCc4cc5ccccc5oc4=O)CC3)nc3cncnc32)o1` [Compound 107], 0.02 mg/kg.
Take `Fc1ccc(Cn2c(NC3CCN(CCNc4nccs4)CC3)nc3cncnc32)cc1` [Compound 172, 9-[(4-fluorophenyl)methyl]-N-[1-[2-(2-thiazolylamino)ethyl)-4-piperidinyl]-9H-purin-8-amine]: the ED50 amounted to 0.04 mg/kg.
Still for that read-out and setting: in the case of `Cc1nc2ccccn2c(=O)c1CCN1CCC(Nc2nc3cncnc3n2Cc2ccccc2)CC1` [Compound 100] it was 0.02 mg/kg; in that of `COc1ccc(CCN2CCC(Nc3nc4cncnc4n3Cc3ccco3)CC2)cc1` [Compound 76], 0.02 mg/kg.
For `Cc1nc2ccccn2c(=O)c1CCN1CCC(Nc2nc3cncnc3n2Cc2cnccn2)CC1` [Compound 87, 2-methyl-3-[2-[4-[[9-(2-pyrazinylmethyl)-9H-purin-8-yl]amino]-1-piperidinyl]-ethyl]-4H-pyrido[1,2-a]pyrimidin-4-one], the ED50 worked out at 0.08 mg/kg.
Still for that read-out and setting: in the case of `c1ccc(CCN2CCC(Nc3nc4cncnc4n3Cc3ccccn3)CC2)nc1` [Compound 144, N-[1-[2-(2-pyridinyl)ethyl]-4-piperidinyl]-9-(2-pyridinylmethyl)-9H-purin-8-amine] it was 0.04 mg/kg; in that of `Cc1ccc(Cn2c(NC3CCN(CCNc4ncccn4)CC3)nc3cncnc32)o1` [Compound 168], 0.02 mg/kg.
With `COc1ccc(CCN2CCC(Nc3nc4cncnc4n3Cc3ccc(F)cc3)CC2)cc1` [Compound 80], under “240 min”, the “compound 48/80 lethality test in rats-ED50” value is 0.04 mg/kg body weight.
For the compound `COc1ccc(CCN2CCC(Nc3nc4cncnc4n3Cc3ccc(C)o3)CC2)cc1` [Compound 79], the ED50 was 0.04 mg/kg.
For `O=C(O)/C=C/C(=O)O.O=C(O)/C=C/C(=O)O.O=c1[nH]c2ccccc2n1CCCN1CCC(Cc2nc3cncnc3n2Cc2ccc(F)cc2)CC1` [Compound 114, 1-[3-[4-[[9-[(4-fluorophenyl)methyl]-9H-purine-8-yl]methyl]-1-piperidinyl]-propyl]-1,3-dihydro-2H-benzimidazol-2-one (E)-2-butenedioate(1:2)], the ED50 stood at 0.04 mg/kg.
The same measure, in the same setting: in the case of `c1ccc(CCN2CCC(Nc3nc4cncnc4n3Cc3ccco3)CC2)nc1` [Compound 142, 9-(2-furanylmethyl)-N-[1-[2-(2-pyridinyl)ethyl]-4-piperidinyl]-9H-purin-8-amine] it was 0.02 mg/kg; in that of `O=c1[nH]c2ccccc2n1CCN1CCC(Nc2nc3cncnc3n2Cc2ccc(F)cc2)CC1` [Compound 115, 1-[2-[4-[[9-[(4-fluorophenyl)methyl]-9H-puri-8-yl]amino]-1-piperidinyl]ethyl]-1,3-dihydro-2H-benzimidazol-2-one], 0.08 mg/kg; in that of `COc1ncnc2c1nc(CC1CCN(CCNc3ncccn3)CC1)n2Cc1ccc(F)cc1` [Compound 169], 0.08 mg/kg.
The same measure, in the same setting: in the case of `COc1ccc(CCN2CCC(Cc3nc4ncnc(O)c4n3Cc3ccc(F)cc3)CC2)cc1` [Compound 62, 7-[(4-fluorophenyl)methyl]-8-[[1-[2-(4-methoxyphenyl)ethyl]-4-piperidinyl]methyl]-7H-purin-6-ol] it was 0.04 mg/kg.

These data come from US5041448A, “(4-piperidinylmethyl and -hetero) purines” (Janssen Pharmaceutica N.V., priority 1985, dated 1991).
